{"source": "patent US20220152028A1", "about": "“COMBINATION DRUG TREATMENT FOR HUMAN CYTOMEGALOVIRUS” (Microbiotix, Inc., priority 2019, published 2022)", "key": {"HCMV DNA polymerase UL54": {"biological_target": "HCMV DNA polymerase UL54 (Human cytomegalovirus, UniProt P08546)", "sequence (P08546 whole entry)": "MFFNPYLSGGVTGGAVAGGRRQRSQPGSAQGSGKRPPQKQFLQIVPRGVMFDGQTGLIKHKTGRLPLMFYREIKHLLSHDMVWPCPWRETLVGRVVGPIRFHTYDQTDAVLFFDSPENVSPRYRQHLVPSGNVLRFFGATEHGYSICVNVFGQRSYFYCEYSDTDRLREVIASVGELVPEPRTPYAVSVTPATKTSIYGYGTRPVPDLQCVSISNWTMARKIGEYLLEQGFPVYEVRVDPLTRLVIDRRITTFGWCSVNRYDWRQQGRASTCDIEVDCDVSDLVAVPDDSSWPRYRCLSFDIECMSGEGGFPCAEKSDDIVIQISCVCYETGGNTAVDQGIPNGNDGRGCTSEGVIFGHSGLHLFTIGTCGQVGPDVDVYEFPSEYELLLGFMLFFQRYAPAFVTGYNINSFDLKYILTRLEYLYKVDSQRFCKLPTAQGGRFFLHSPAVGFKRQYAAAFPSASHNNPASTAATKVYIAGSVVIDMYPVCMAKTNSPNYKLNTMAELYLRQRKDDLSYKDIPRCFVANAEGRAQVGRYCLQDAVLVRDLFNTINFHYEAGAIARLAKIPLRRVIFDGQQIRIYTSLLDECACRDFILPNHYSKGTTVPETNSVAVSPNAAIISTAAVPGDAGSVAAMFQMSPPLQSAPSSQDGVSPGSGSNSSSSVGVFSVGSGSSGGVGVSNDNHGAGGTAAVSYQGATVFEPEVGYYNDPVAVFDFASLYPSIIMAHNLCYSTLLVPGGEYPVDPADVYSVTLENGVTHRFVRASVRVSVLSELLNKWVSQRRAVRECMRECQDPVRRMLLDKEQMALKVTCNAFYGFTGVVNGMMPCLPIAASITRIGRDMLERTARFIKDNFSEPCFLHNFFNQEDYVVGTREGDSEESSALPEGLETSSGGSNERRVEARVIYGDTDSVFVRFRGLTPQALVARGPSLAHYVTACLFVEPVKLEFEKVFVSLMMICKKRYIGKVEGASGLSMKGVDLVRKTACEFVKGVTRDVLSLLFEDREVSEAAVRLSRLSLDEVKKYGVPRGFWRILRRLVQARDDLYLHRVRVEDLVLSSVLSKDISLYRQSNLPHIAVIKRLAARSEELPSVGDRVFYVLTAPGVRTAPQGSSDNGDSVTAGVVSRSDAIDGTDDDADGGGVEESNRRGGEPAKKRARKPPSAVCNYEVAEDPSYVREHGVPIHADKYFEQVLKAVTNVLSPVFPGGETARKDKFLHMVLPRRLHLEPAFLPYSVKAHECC", "settings": "higher than GCV-TP; cited from earlier work"}, "[1]": {"system": "HCMV control strain UL56 wt", "test": "SEAP reporter susceptibility assay in ARPEp cells, baseline strain", "format": "cell-based, human cytomegalovirus", "settings": "Human betaherpesvirus 5, 144 h, read-out: Mean EC50", "text": "(§1) These UL56 amino acid substitutions were introduced into the bacterial artificial chromosome (BAC) clone BD2 of HCMV laboratory strain AD169 modified with a secreted alkaline phosphatase (SEAP) reporter gene, as previously described (Chou, S., Antimicrob. Agents Chemother., 59: 6588-6593 (2015)). The mutagenized BAC clones were transfected into modified retinal epithelial (ARPEp) cells and the recovered infectious recombinant viruses were then genotyped and phenotyped as previously described (Chou et al., Antimicrob. Agents Chemother., 62(9): e00922-18 (2018)).\n(§2) Control strains included a baseline strain of wild-type UL56 and a UL97 M460V mutant that is resistant to […]. For susceptibility assays, calibrated viral inocula were added to 24-well plate cultures of ARPEp cells and incubated under a series of filociclovir concentrations, and the concentrations required to reduce SEAP activity by 50% (EC50) at 6 days were determined in duplicate assays on each of 3 to 5 setup dates."}, "HCMV UL56 mutant V231L": {"system": "HCMV UL56 mutant V231L", "test": "SEAP reporter susceptibility assay in ARPEp cells, UL56 V231L", "format": "cell-based, human cytomegalovirus", "text": "(§3) In order to test the effect of filociclovir on letermovir-resistant strains, we used 4 HCMV UL56 mutants encountered in clinical practice: V231L, V236M, C325F and C325Y, the latter 2 of which commonly emerged to confer absolute letermovir resistance (Grantham et al., Biol. Blood Marrow Transplant. 25: S344-S345 (2019); Turner et al., Antimicrob. Agents Chemother., 63(3): e02337-18 (2019)).\nas §1, §2"}, "HCMV UL56 mutant V236M": {"system": "HCMV UL56 mutant V236M", "test": "SEAP reporter susceptibility assay in ARPEp cells, UL56 V236M", "format": "cell-based, human cytomegalovirus", "text": "as §3, §1, §2"}, "[2]": {"system": "HCMV UL56 mutants (V231L, V236M, C325F, C325Y)", "test": "SEAP reporter susceptibility assay in ARPEp cells, UL56 mutants as a group", "format": "cell-based, human cytomegalovirus", "settings": "Human betaherpesvirus 5, read-out: mean EC50 values against the UL56 mutants tested", "text": "as §3, §1, §2"}, "HCMV (strain AD169)": {"system": "HCMV (strain AD169)", "test": "Plaque reduction assay in HFF cells infected with HCMV strain AD169", "format": "cell-based, human cytomegalovirus", "settings": "Human betaherpesvirus 5, 216 h, plaque count after 9 days, read-out: EC50, compound tested separately", "description": "We examined the in vitro anti-HCMV (strain AD169; ATCC #VR-538) activity of filociclovir and letermovir both separately and as triplicate combinations at a concentration range of 0.0064-100 μM, and 0.0064-100 nM, respectively.\nMonolayers of human foreskin fibroblasts (HFF cells; ATCC #SCRC-1041) were grown in 1 ml of DMEM (Corning #10-013-CM) containing 10% heat-inactivated fetal bovine serum (Gibco #A38402-01) and 1% penicillin-streptomycin solution (Hyclone #SV30010) in 24-well plates and infected with 100 plaque forming units (PFUs) of HCMV. Following incubation for 1 hr at 37° C., the virus was aspirated and replaced with MEM (Corning #50-010-PB) containing 1% methyl cellulose (Sigma #M-0521) and the various concentrations of filociclovir and letermovir were added as set forth above. A set of wells, designated as non-treated controls, received neither of the two compounds.\nInfected plates were incubated for 9 days at 37° C., then fixed and stained with crystal violet stain (0.1% in 20% methanol). The number of plaques in each well was counted and the level of synergism was assessed using MacSynergy™ II (Prichard and Shipman 1990, supra), which provides an overall evaluation of the deviation from the theoretical additive effect of both drugs based on individual dose-response curves."}, "HCMV UL97 M460V mutant": {"system": "HCMV UL97 M460V mutant", "test": "SEAP reporter susceptibility assay in ARPEp cells, UL97 M460V", "format": "cell-based, human cytomegalovirus", "text": "as §1, §2"}, "HCMV UL56 mutant C325Y": {"system": "HCMV UL56 mutant C325Y", "test": "SEAP reporter susceptibility assay in ARPEp cells, UL56 C325Y", "format": "cell-based, human cytomegalovirus", "text": "as §3, §1, §2"}, "HCMV UL56 mutant C325F": {"system": "HCMV UL56 mutant C325F", "test": "SEAP reporter susceptibility assay in ARPEp cells, UL56 C325F", "format": "cell-based, human cytomegalovirus", "text": "as §3, §1, §2"}, "HCMV": {"system": "HCMV", "settings": "literature statement; cited from earlier work"}, "[3]": {"settings": "Human betaherpesvirus 5, 144 h, read-out: Mean EC50"}}, "note": "pEC50: −log10 of the molar value.", "data": [{"smiles": "Nc1nc2c(ncn2/C=C2/CC2(CO)COP(=O)(O)OP(=O)(O)OP(=O)(O)O)c(=O)[nH]1", "note": "(stereo not shown) [FCV-TP, FCV triphosphate]", "values": [{"measurement": "affinity to HCMV DNA polymerase UL54 relative to GCV-TP", "setting": "HCMV DNA polymerase UL54", "value": "about 10 fold"}]}, {"smiles": "Nc1nc2c(ncn2/C=C2/CC2(CO)CO)c(=O)[nH]1", "note": "[Filociclovir, (Z)-9-{[2,2-bis-(hydroxymethyl)cyclopropylidene]methyl}guanine]", "values": [{"measurement": "pEC50", "setting": "[1]", "value": 6.37}, {"measurement": "pEC50", "setting": "HCMV UL56 mutant V231L; [3]", "value": 6.54}, {"measurement": "Ratio = EC50 of mutant/EC50 of wild type control", "setting": "HCMV UL56 mutant V231L; UL56 V231L", "value": 0.69}, {"measurement": "pEC50", "setting": "HCMV UL56 mutant V236M; [3]", "value": 6.46}, {"measurement": "Ratio = EC50 of mutant/EC50 of wild type control", "setting": "HCMV UL56 mutant V236M; UL56 V236M", "value": 0.81}, {"measurement": "pEC50", "setting": "[2]", "value": "6.42 to 6.54"}, {"measurement": "pEC50", "setting": "HCMV (strain AD169)", "value": 6.26}, {"measurement": "pEC50", "setting": "HCMV UL97 M460V mutant; [3]", "value": 5.69}, {"measurement": "Ratio = EC50 of mutant/EC50 of wild type control", "setting": "HCMV UL97 M460V mutant; UL97 M460V", "value": 4.8}, {"measurement": "pEC50", "setting": "HCMV UL56 mutant C325Y; [3]", "value": 6.42}, {"measurement": "Ratio = EC50 of mutant/EC50 of wild type control", "setting": "HCMV UL56 mutant C325Y; UL56 C325Y", "value": 0.89}, {"measurement": "pEC50", "setting": "HCMV UL56 mutant C325F; [3]", "value": 6.46}, {"measurement": "Ratio = EC50 of mutant/EC50 of wild type control", "setting": "HCMV UL56 mutant C325F; UL56 C325F", "value": 0.82}]}, {"smiles": "COc1cccc(N2CCN(C3=Nc4c(F)cccc4[C@H](CC(=O)O)N3c3cc(C(F)(F)F)ccc3OC)CC2)c1", "note": "[letermovir, 2-[(4S)-8-fluoro-2-[4-(3-methoxyphenyl)piperazin-1-yl]-3-[2-methoxy-5-(trifluoromethyl)phenyl]-4H-quinazolin-4-yl]acetic acid, reference compound]", "values": [{"measurement": "pEC50", "setting": "HCMV (strain AD169)", "value": 8.52}, {"measurement": "EC50 values", "setting": "HCMV", "value": "nanomolar range"}]}]}
